This is an account of results in paper PMC8597786 (Antimicrobial Agents and Chemotherapy, 2021).

Data set [1] has as its target T1, SARS-CoV-2 spike RBD/ACE2 (Severe acute respiratory syndrome coronavirus 2, UniProt P0DTC2).
T1 construct: a SARS-CoV-2 RBD protein derived from USA-WA1/2020 and containing a C-terminal His tag; a full-length ACE2 peptide with a C-terminal Fc tag; purchased Sino Biological
Briefly: biochemical. In kind it is binding, SARS-CoV-2 (USA-WA1/2020).

The next data set deals with Vero-E6 cells. As to the kind of experiment: Resazurin cell viability assay in uninfected cells. Type of data set: cell-based. The protocol: (§1) A total of 20,000 Vero-E6 cells were plated in 96-well plates and incubated overnight before addition of compounds at defined concentrations; 0.1% DMSO vehicle control was added to wells in the absence of test compounds. All experimental conditions were performed in duplicate. Cells were then incubated at 37°C and 5% CO2 for 4 days before addition of resazurin (Sigma-Aldrich) to a final concentration of 20 μg/ml. Cells were incubated for an additional 4 h before fluorescence intensity was measured using a ClarioStar plate reader (BMG Labtech). Background fluorescence was subtracted from wells containing resazurin and D10+ medium but no cells.

For a further data set, the target named is T2, PD-1/PD-L1 (Homo sapiens, UniProt Q9NZQ7).
T2 construct: purchased Sino Biological
As to the kind of experiment: PD-1/PD-L1 AlphaScreen interaction assay. Type of data set: binding.

The subject of data set [2] is VSVΔG-S-GFP pseudovirus containing SARS-CoV-2 spike (USA-WA1/2020).
For data set [3] the following is noted: 200 mg/kg; cited from earlier work.
For data set [4] the following is noted: 100 mg/kg; cited from earlier work.
The conditions of data set [5]: 200 mg/kg; cited from earlier work. This is another data set of the same source.
Data set [6] deals with VSVΔG-S-GFP pseudovirus containing SARS-CoV-2 spike from B.1.351. Type of data set: cell-based, SARS-CoV-2 B.1.351. Conditions: for % GFP+ nuclei, Average: 50 μM; for Infected cells at 50 μM (%), VSVΔG-S-GFP pseudovirus B.1.351: 24 h.
A short description of data set [7]: Resazurin cell viability assay in uninfected cells. The following applies: African green monkey, uninfected Vero-E6 cells, resazurin, 4 days. In kind it is cell-based. The method, then:
as §1

For data set [8], the system named is VSVΔG-S-GFP pseudovirus containing SARS-CoV-2 spike from B.1.1.7. Type of data set: cell-based, SARS-CoV-2 B.1.1.7. Conditions: for % GFP+ nuclei, Average: 50 μM; for Infected cells at 50 μM (%), VSVΔG-S-GFP pseudovirus B.1.1.7: 24 h.
In another data set the target is T3, SARS-CoV-2 M^pro (Severe acute respiratory syndrome coronavirus 2, UniProt P0DTD1).
T3 construct: QHD43415.1; amino acids [aa]; 3264 to 3567; HIS-SUMO (N, cleaved yes); made in house; host or cells: E. coli BL21(DE3)
Briefly: M^pro enzymatic assay (FRET fluorogenic peptide substrate). In kind it is biochemical.

The test system of data set [9] is SARS-CoV-2 (BetaCov isolate). Conditions: supernatant viral RNA by quantitative PCR after 48 h, read-out: EC50 in SARS-CoV-2-infected Vero-E6 cells; cited from earlier work.
The test system of another data set is RBD with ACE2. The following applies: read-out: IC50, inhibition of binding of RBD with ACE2; cited from earlier work.
In a further data set the test system is SARS-CoV-2. The following applies: read-out: EC50, SARS-CoV-2 replication; cited from earlier work.
The mark [10] stands for this setting: read-out: IC50 for Spike/ACE2 AlphaScreen.

Several values for one entry are separate records, joined by “and”; a condition that tells them apart may be missing. Equal entries are not always repeated. Where two headings read alike, the source gives them in different places. A value given as a limit tells only on which side of the number the result lay.

T2 sequence (Q9NZQ7 19-239 limits assumed): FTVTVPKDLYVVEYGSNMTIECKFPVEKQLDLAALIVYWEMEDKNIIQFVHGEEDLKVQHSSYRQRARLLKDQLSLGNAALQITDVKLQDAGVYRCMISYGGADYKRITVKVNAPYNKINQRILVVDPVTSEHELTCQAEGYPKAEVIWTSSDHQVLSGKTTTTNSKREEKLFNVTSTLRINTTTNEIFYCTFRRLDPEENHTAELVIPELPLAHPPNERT
Experimental for PD-1/PD-L1: PD-1 binding to PD-L1 was also determined using AlphaScreen technology. […] Next, 5 μl of PD-L1-Fc/protein A acceptor beads was added first to the plate, followed by 100 nl of test compound prepared as described above, followed by 5 μl of PD-1-His/nickel chelate donor beads. For each experiment, all conditions were performed in duplicate. Following 2 h of incubation at room temperature, data were collected as described above and normalized to percentage inhibition, where 100% equaled the AlphaScreen signal in the absence of PD-1-His, and 0% equaled the AlphaScreen signal in the presence of both proteins and 0.1% DMSO alone.

Consider `Cc1c(COc2cc(OCc3cccc(C#N)c3)c(CN3C[C@H](O)C[C@@H]3C(=O)O)cc2Cl)cccc1-c1ccc2c(c1)OCCO2` [BMS-1166, reference compound], for which the IC50 in [1] (setting [10]) was above 100 µM.
In the data set with Vero-E6 cells (resazurin, 4 days), `CC(C)C[C@H](NC(=O)OCc1ccccc1)C(=O)N[C@@H](CC1CCNC1=O)C(O)S(=O)(=O)O` (stereo partly shown) [GC-376, reference compound] registered a CC50 above 10 µM.
Take `Oc1ccc([C@@H]2c3c(O)cc(O)cc3[C@@H]3c4c(cc(O)cc4[C@H]2[C@@H]2c4cc(O)cc5c4[C@@H](c4cc(O)cc(O)c4[C@H]2c2ccc(O)cc2)[C@H](c2ccc(O)cc2)O5)O[C@H]3c2ccc(O)cc2)cc1` [Hopeaphenol, (–)-hopeaphenol]: the IC50 on PD-1/PD-L1 turned out to be 28.3 µM; in data set [1], 0.11 µM; on SARS-CoV-2 M^pro it was 42.5 µM. Also, the “% GFP+ nuclei, Average” value in data set [2] (50 μM) is recorded as 0.69%; in data set [6] it was 0.93%; in data set [8] it was 1.83%. Besides, the “Infected cells at 50 μM (%), VSVΔG-S-GFP pseudovirus WA1/2020” value in data set [2] (24 h) is 28.2 ± 1.2% and 28.2%. The “Plasma triglyceride elevation in olive oil-treated mice” value in [3] is “inhibit plasma triglyceride elevation”. In addition, the “Effect against LPS-induced liver injury in mice” value in data set [4] was “hepatoprotective effects”. Moreover, the “Plasma glucose in sucrose-loaded mice” value in data set [5] is recorded as “reduce plasma glucose”. The “Infected cells at 50 μM (%), VSVΔG-S-GFP pseudovirus B.1.351” value in data set [6] was 20.4 ± 2.4% and 20.4%. In addition, the Selectivity index in data set [1] amounted to 257.3. In data set [7], the CC50 at 4 days is above 100 µM. Moreover, the “Infected cells at 50 μM (%), VSVΔG-S-GFP pseudovirus B.1.1.7” value in data set [8] was 34.1 ± 13.6% and 34.1%.
`CCC(CC)COC(=O)[C@H](C)N[P@](=O)(OC[C@H]1O[C@@](C#N)(c2ccc3c(N)ncnn23)[C@H](O)[C@@H]1O)Oc1ccccc1` [Remdesivir, remdesivir, reference compound] had a CC50 at 4 days in [7] above 10 µM.
For the compound `Oc1ccc(/C=C/c2cc(O)cc(O)c2)cc1` [Resveratrol, resveratrol, reference compound], in data set [9], the EC50 was 10.7 µM. The “% GFP+ nuclei, Average” value in data set [2] (50 μM) was 2.36%. The “Total cell nuclei, % of nuclei observed in untreated, infected cells” value in [2] (50 μM, 24 h) amounted to 60.3 ± 7.0%. In addition, the “Infected cells at 50 μM (%), VSVΔG-S-GFP pseudovirus WA1/2020” value in data set [2] (24 h) was 96.3 ± 14.7% and 96.3%. Moreover, the IC50 in data set [1] is above 100 µM. The compound further displayed a CC50 at 4 days in [7] of around 100 µM.
Consider `OC[C@H]1O[C@@H](Oc2cc3c4c(c2)[C@@H]([C@@H]2c5cc(O)cc6c5[C@@H](c5cc(O)cc(O)c5[C@H]2c2ccc(O)cc2)[C@H](c2ccc(O)cc2)O6)[C@H](c2ccc(O)cc2)c2c(O)cc(O)cc2[C@H]4[C@H](c2ccc(O)cc2)O3)[C@H](O)[C@@H](O)[C@@H]1O` [Vatalbinoside A, vatalbinoside A], for which the IC50 against PD-1/PD-L1 came out at 22.3 µM; in data set [1], 0.24 µM; on SARS-CoV-2 M^pro, 68.7 µM. Moreover, the “% GFP+ nuclei, Average” value in data set [2] (50 μM) is on record as 0.99%; in data set [6], 1.87%; in data set [8], 2.35%. The “Infected cells at 50 μM (%), VSVΔG-S-GFP pseudovirus WA1/2020” value in data set [2] (24 h) is 40.4 ± 16.7% and 40.4%. In addition, the “Infected cells at 50 μM (%), VSVΔG-S-GFP pseudovirus B.1.351” value in data set [6] was 41.1 ± 2.6% and 41.1%. In data set [1], this compound registered a Selectivity index of 92.9. This compound had a CC50 at 4 days in data set [7] above 100 µM. Besides, the “Infected cells at 50 μM (%), VSVΔG-S-GFP pseudovirus B.1.1.7” value in data set [8] is 43.8 ± 3.4% and 43.8%.
`Oc1ccc([C@@H]2c3c(O)cc(O)cc3[C@@H]3c4c(cc(O)c5c4[C@@H]2[C@H](c2ccc(O)cc2)[C@H]5c2cc(O)cc4c2[C@@H](c2cc(O)cc(O)c2)[C@H](c2ccc(O)cc2)O4)O[C@H]3c2ccc(O)cc2)cc1` [Vaticanol B, vaticanol B]: the IC50 is 16.6 µM at PD-1/PD-L1, 0.067 µM in data set [1] and 47.6 µM on SARS-CoV-2 M^pro. Further, the “% GFP+ nuclei, Average” value amounted to 2.05% in data set [2] (50 μM), 3.29% in data set [6] and 2.02% in data set [8]. The “Infected cells at 50 μM (%), VSVΔG-S-GFP pseudovirus WA1/2020” value in [2] (24 h) is 83.7 ± 4.9% and 83.7%. Moreover, in [6], the “Infected cells at 50 μM (%), VSVΔG-S-GFP pseudovirus B.1.351” value is 72.3 ± 7.3% and 72.3%. In data set [1], this compound showed a Selectivity index of 247.8. In data set [7], this compound registered a CC50 at 4 days above 100 µM. For the same compound, the “Infected cells at 50 μM (%), VSVΔG-S-GFP pseudovirus B.1.1.7” value in [8] is 37.7 ± 4.1% and 37.7%.
Take `Oc1ccc([C@H]2Oc3cc(O)cc([C@@H]4[C@H](c5cc(O)cc(O)c5)[C@@H](c5ccc(O)cc5)O[C@H]4c4ccc(O)cc4)c3[C@@H]2c2cc(O)c3c(c2)[C@@H](c2cc(O)cc(O)c2)[C@H](c2ccc(O)cc2)O3)cc1` [kobophenol A]: the IC50 in the data set with RBD with ACE2 was 1.8 µM. For the same compound, the EC50 in the data set with SARS-CoV-2 was 71.6 µM.
Regarding REGN10933, the IC50 in data set [1] (setting [10]) was determined as 0.00018 µM. Besides, the “Cytotoxicity by resazurin staining” value with Vero-E6 cells (4 days of treatment) is on record as “no evidence of cytotoxicity”.
